Assay results: patent publication EP0103895A2, “Novel hydroxylamine derivatives, production and use thereof” (MEIJI SEIKA KABUSHIKI KAISHA, priority 1982, dated 1984)
Values joined by “and” are separate entries in the source; they are usually repeats but may differ in a detail not shown here. Identical values can stand only once. Like-named read-outs stand apart in the source and are kept apart here.

Legend:
[1] = tested on: fowl roundworm (Ascaridia galli); test: Anthelmintic test in chickens artificially infected with fowl roundworm, single oral dose in gelatin capsule, worm bodies counted within 48 hours (Test Examples A1, B1, C1, D1); assay type: in vivo; settings: Ascaridia galli, po, 48 h, chicken, chickens No.1-3, read-out: Anthelmintic effect after 48 hours; for inhibition in vivo at 30 mg/kg: 30 mg/Kg oral in gelatin capsule; for inhibition in vivo at 50 mg/kg: 50 mg/Kg oral in gelatin capsule; for inhibition in vivo at 15 mg/kg: 15 mg/Kg oral in gelatin capsule
Procedure, shortened: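 Anthelmintic percentage derived from counts of worms passed within 48 h plus worms left in the intestine after killing at 48 h. Infection confirmed by fecal examination in three-bird groups; compound given orally once in gelatin capsules at 10/20 (A1, B1), 30/50 (C1) or 15/30 (D1) mg/kg.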

[2] = tested on: fowl roundworm (As. galli); test: Anthelmintic test in chickens artificially infected with fowl roundworm, compound added to feed, E.P.G. and worm count up to 21st day (Test Examples A2, B2, C2, D2); assay type: in vivo, Ascaridia galli; settings: chicken; for inhibition in vivo at 25 ppm / inhibition in vivo at 50 ppm: Ascaridia galli, feed or water, 504 h, read-out: Anthelmintic effect
[3] = tested on: swine roundworm (Ascaris suum); test: Test of anthelmintic effect in naturally infected pigs, E.P.G. on 7th day: swine roundworm (Test Examples A9, B9, C9, D9); assay type: in vivo; settings: for Change of E.P.G. 7th day: one administration; for anthelmintic effect: pigs infected with swine roundworm and swine whipworm (statement covers both), one administration of 30 mg/Kg
Method: (§1) Six pigs infected with swine roundworm and swine whipworm (naturally infected pigs) were employed in groups each of two pigs.
(§2) As a control, only gelatin capsules were administered orally to the two pigs.
(§3) Before administration and on the 7th day after. administration, fecal matter testing was conducted to calculate the E.P.G., and the anthelmintic effect was judged by the changing of the E.P.G. to negative'.
(§4) 50 mg of each compound was placed in a gelatin capsule per 1 Kg of body weight and administered orally to each of the two pigs. As control, only gelatin capsules were administered orally to two pigs.
(§5) 30 mg of each compound was placed in a gelatin capsule per 1 Kg of body weight and administered orally to each of the two pigs. As control, only gelatin capsules were administered orally to two pigs.

[4] = tested on: swine whipworm (Trichuris suis); test: Test of anthelmintic effect in naturally infected pigs, E.P.G. on 7th day: swine whipworm (Test Examples A9, B9, C9, D9); assay type: in vivo; settings: pig; for Change of E.P.G. 7th day: one administration
Method: as §1, §2, §3, §4, §5

[5] = tested on: Liver fluke; Fasciola hepatica (F. hepatica); test: Test of anthelmintic effect against rat infected experimentally with liver fluke (Test Examples A11, B11, C11, D11); assay type: in vivo; settings: for anthelmintic effect: rats, five administrations in a dose of 50 mg/Kg each
Description: Twenty-eight (28) rats were employed in fourteen groups each of two rats, each rat being infected with 5 metacercariae of Liver fluke; Fasciola he^patica (F.. hepatica) and confirmed to have worm eggs on the 75th day after infection according to fecal matter testing.
Judgement of the effect was made by the presence or absence of the worm gees in the fecal matter on the 21st day after the last administration and by examination according to autopsis as to whether the worm bodies were dead or alive in the liver.
The same as that in Test Example All, but eight (8) rats were employed by grouping them into groups each of two rats, each rat being infected with 5 metacercariae of liver fluke and confirmed to have fluke eggs on the 75th day after infection according to fecal matter testing.
The compounds provided for the tests were Compound Nos. Bl, B8 and B19.
The same as that in Test Example All, but six (6) rats were employed by grouping them into groups each of two rats, each rat being infected with 5 metacercariae of Fasciola hepatica and confirmed to have worm eggs on the 75th day after infection according to fecal matter testing.
The compounds provided for the tests were Compound Nos. C2 and C6.
The same as that in Test Example All, but the compounds provided for tests were Compound Nos. D14, D15 and D16.

[6] = tested on: swine Oesophagostomum (Oesophagostomum dentatum); test: Test of anthelmintic effect against swine Oesophagostomum in naturally infected pigs, E.P.G. on 7th day (Test Examples A8, B8, C8, D8); assay type: in vivo
Method: Six pigs infected with swine Oesophagostomum (naturally infected pigs) were employed by grouping them into groups each of two pigs.
as §2
(§6) Before administration and on the 7th day after administration, fecal matter testing was conducted to calculate the E.P.G., and the anthelmintic effect was judged by the changing of the E.P.G. to negative.

[7] = tested on: canine filaria; Dirofilaria immitis; test: Test of anthelmintic effect against canine filaria in naturally infected dogs, subcutaneous injection, microfilaria in blood and adult filaria at autopsy (Test Examples A10, B10, C10, D10); assay type: in vivo; settings: for inhibition in vivo at 20 mg/kg: Dirofilaria immitis, sc, 240 h; for Effect on adult filaria: Number of worms killed/ Total parasite: 20 mg/kg
[8] = tested on: Diphyllobothrium erinacei; test: Test of anthelmintic effect against Diphyllobothrium erinacei (tapeworm) in experimentally infected cats (Test Examples A5, B5, C5, D5)
[9] = tested on: canine strongyloides (Strongyloides stercoralis); test: Anthelmintic test against canine strongyloides in naturally infected dogs, E.P.G. on 7th day (Test Examples A4, B4, C4, D4); assay type: in vivo
Method: Three dogs infected with canine strongyloides (naturally infected dogs) were employed by grouping them into a group of two and a group of one.
As control, only a gelatin capsule was administered orally to the one dog.
as §6
(§7) As control, only gelatin capsules were administered orally to the one dog.
as §7

[10] = pig, Ascaris suum, 30 mg/Kg oral in gelatin capsule
[11] = 30 mg/Kg oral in gelatin capsule
[12] = dog, 20 mg/Kg x 3, subcutaneous injection, read-out: Effect on adult filaria: Percent of worms killed
[13] = dogs, administration of 20 mg/Kg repeated three times, given as about 50% or more, read-out: anthelmintic effect against adult filaria
[14] = dog, 20 mg/Kg x 3, subcutaneous injection
[15] = dog, 20 mg/Kg x 3, subcutaneous injection, hydrochloride
[16] = dogs, administration of 20 mg/Kg repeated three times

Row | SMILES | inhibition in vivo at 30 mg/kg [1] | inhibition in vivo at 50 mg/kg [1] | inhibition in vivo at 25 ppm ([2]; 25 ppm in feed) | inhibition in vivo at 50 ppm ([2]; 50 ppm in feed) | Change of E.P.G. 7th day [3, 10] | anthelmintic effect [3] | Change of E.P.G. 7th day [4, 11] | Presence or absence of fluke egg in fecal matter On 21st day after the last administration ([5]; rat, 50 mg/Kg x 5) | anthelmintic effect [5] | inhibition in vivo at 20 mg/kg [7, 12] | inhibition in vivo at 20 mg/kg [7, 13] | Number of microfilaria/20µl On 10th day after the administration [7, 14] | Effect on adult filaria: Number of worms killed/ Total parasite [7, 15] | anthelmintic effect against microfilaria (mf) [7, 16] | inhibition in vivo at 15 mg/kg [1] | further results
1 | C=CCON(CC=C)C(=O)CCC [Compound C3] | 80 to 90% | 100% | 80 to 90% | 100% | 0 | marked anthelmintic effect | 0 |  |  |  |  |  |  |  |  | Change of E.P.G. Before administration ([3]; pig, Ascaris suum, before 30 mg/Kg oral (baseline)): 1,300 and 2,100
2 | C=CCON(CC=C)C(=O)c1ccccc1 [Compound C6] | 100% | 100% | 100% | 100% | 0 | marked anthelmintic effect | 0 | - | marked antihelmintic effect |  |  |  |  |  |  | Condition of fluke body ([5]; rat, 50 mg/Kg x 5): dead; Change of E.P.G. 21st day ([2]; 25 ppm in feed): 0; Change of E.P.G. 21st day ([2]; 50 ppm in feed): 0; Change of E.P.G. Before administration ([4]; before 30 mg/Kg oral (baseline)): 4,300 and 5,800; Change of E.P.G. 7th day ([6]; pig, Oesophagostomum dentatum, 20 mg/Kg, one administration): 0; anthelmintic effect ([6]; pigs, one administration of 20 mg/Kg): marked anthelmintic effect
3 | C#CCNOCC.Cl [Compound D10, N-propargyl-O-ethylhydroxylamine hydrochloride] | 100% |  |  |  |  |  |  |  |  | 54% | ≥ 50% | 0 /20µl | 18/33 and 20/28 | marked anthelmintic effect | 100% | Change of E.P.G. 7th day ([3]; pig, Ascaris suum, 20 mg/Kg): 0; Change of E.P.G. 7th day ([4]; 20 mg/Kg): 0
4 | C#CCNOC.Cl [Compound D16, N-propargyl-O-methylhydroxylamine hydrochloride] | 100% |  | 100% | 100% |  |  |  | - | marked anthelmintic effect | 55% | ≥ 50% | 0 /20µl | 16/29 and 23/37 | marked anthelmintic effect | 100% | Condition of fluke bodies ([5]; rat, 50 mg/Kg x 5): dead; Number of worms remaining in enteron ([8]; cat, 50 mg/Kg x 5): 0; anthelmintic effect ([8]; cats, 5 continuous administrations of 50 mg/Kg): marked anthelmintic effects; Number of microfilaria/20µl Before administration ([7]; dog, before 20 mg/Kg x 3 subcutaneous injection (baseline), hydrochloride): 18 /20µl and 31 /20µl; Change of E.P.G. 7th day ([9]; dog, Strongyloides stercoralis, 10 mg/Kg, one administration): 0; Change of E.P.G. Before administration ([9]; dog, Strongyloides stercoralis, before 10 mg/Kg (baseline), hydrochloride): 2,300 and 1,800; anthelmintic effect ([9]; dogs, one administration of 10 mg/Kg): marked anthelmintic effect
